Measurements reported in patent US8637321B2, “Lipidomics approaches for central nervous system disorders” (priority 2005, dated 2014).

Key:
[1] = system: patients with schizophrenia; assay: plasma lipid profiling pre- and post-treatment with antipsychotics; format: in vivo, human
Source text: (§1) Fifty male and female patients were recruited in two studies for metabolic profiling (Table VI and Table VII for demographics). Subjects ranged in age from 18 to 60 years and met the following inclusion criteria: a) DSM-IV criteria for schizophrenia, schizophreniform disorder, or schizoaffective disorder; b) newly hospitalized for a psychotic exacerbation in the setting of no antipsychotic treatment for at least 3 weeks prior to admission; and c) provided signed informed consent. Patients with psychoses due to psychoactive substance abuse or an underlying medical condition were excluded. Patients who were receiving treatment for diabetes mellitus or hyperlipidemia were also excluded.
The choice and dose of antipsychotic medication was based on the doctor's judgment. […] The treatment duration was 2-3 weeks. […] The mean duration of therapy was about 2 weeks for all 3 drugs in Study II. The drug groups were otherwise generally similar in severity of disease and physical characteristics (Table VI and Table VII). The 2-3 week duration permits the study of acute early effects.
All blood samples were drawn from subjects in the early morning after overnight fasting. Blood was drawn into vacutainer tubes containing sodium heparin, immediately placed on ice, and within 10 minutes, the blood was centrifuged and the plasma was transferred into polypropylene tubes and stored in a −30° C. freezer. All baseline samples were drawn prior to starting antipsychotic treatment in the study. If a patient had received a dose of an antipsychotic during the referral process (e.g., because of agitation when initially seen in a local emergency department), drawing of baseline plasma samples was delayed for 2-3 days. Follow-up samples were drawn after patients had received an average of 2-3 weeks of acute antipsychotic treatment.
A comprehensive assessment of plasma lipid profiles was performed (Lipomics Technologies, West Sacramento, Calif.) according to established methods (Watkins, et al. (2002) J. Lipid Res. 43(11):1809-17). Quantitative measurements of fatty acids in various lipid classes were determined as nmol fatty acid/gram of plasma. Lipid classes included cholesterol esters (CE), free cholesterol (FC), triacylglycerols (TG), diacylglycerols (DG), free fatty acids (FA), lysophosphatidylcholine (LY), phosphatidylcholine (PC), and phosphatidylethanolamine (PE). Lipid metabolites are identified by the lipid class and the fatty acid moiety. In the context of this invention, fatty acids are identified first by the number of carbons in the molecule (e.g., 20), the number of double bonds in the molecule (e.g., 4), and lastly the position of the double bonds (e.g., n6). To illustrate, PC20:4n6 denotes a phosphatidylcholine molecule containing a 20 carbon fatty acid with 4 double bonds at the n6 position.
Significant differences between pre- and post-drug treatment were assessed by paired t-tests. Evaluation of response to drug was assessed by two-way ANOVA. All statistics were done using R with the following functions: t.test, anova, prcomp, and g/m (Team RDC (2005) R: A language and environment for statistical computing. R Foundation for Statistical Computing). Before beginning statistical analyses, change detection was used to determine if observed signals were greater than that which could be expected by chance (noise). The chance distribution of p-values was determined by permuting the outcome groupings (Golub, et al. (1999) Science 286(5439):531-7). Briefly, P values for the appropriate comparison were calculated for each metabolite using a Student's t-test. The metabolites were ranked by p value from smallest to largest. The log of the rank versus the log of the p value for each comparison of interest was plotted and is represented by a colored line. The distribution of p values expected by chance at each rank is indicated by the shaded area. […]

[2] = system: patients with schizophrenia; assay: Clinical Global Impressions (CGI) Scale psychopathology assessment; format: in vivo, human; conditions: means and standard error; for CGI Affective, Post / CGI Negative, Post / CGI Positive, Post: CGI Scale 1 to 7, higher scores greater severity; for CGI Change, Post: overall global change rating at follow-up (1-2 responders, 3-6 non-responders)
Source text: as §1
The choice and dose of antipsychotic medication was based on the doctor's judgment. […] The treatment duration was 2-3 weeks. […] The 2-3 week duration permits the study of acute early effects.
Psychopathology was assessed on the Clinical Global Impressions (CGI) Scale at baseline and at the time of follow-up blood draws. Scores for the CGI Scale can range from 1 to 7, with higher scores indicating greater severity of illness (Guy (1975) ECDEU Assessment Manual for Psychopharmacology: Publication ADM 76-338. Washington, D.C.: US Department of Health, Education, and Welfare). An overall global change rating was also made at the time of the follow-up blood draw.

[3] = system: fatty acid elongation and desaturation (delta 5 desaturase, delta 6 desaturase, elongase); assay: pathway analysis: lipid synthesis enzyme activities estimated from fatty acid ratios; format: in vivo, human
Procedure: Estimates of lipid synthesis enzyme activities were calculated using the precursor to product ratios for each enzyme. The following ratios were used: 18:3n6/18:2n6 for delta 6 desaturase; 20:3n6/18:3n6 for delta 6 elongase; 20:4n6/20:3n6 for delta 5 desaturase; 22:4n6/20:4n6 for elongase; 24:4n6/22:4n6 for elongase; 24:5n6/24:4n6 for delta 6 desaturase. The absolute numbers for each fatty acid metabolite were used for calculating metabolite changes.
To characterize fatty acid elongation and desaturation processes that might be modified in schizophrenia, various ratios of products to substrates in different fatty acid pathways were determined and are summarized in Table VIII.

[4] = cited from earlier work
[5] = Study I, plasma, post-treatment vs pre-treatment
[6] = Study II, plasma, post-treatment vs pre-treatment
[7] = plasma, mole percentage data, post treatment compared with pretreatment
[8] = plasma, total lipid class data (nmol/g sample), post treatment compared with pretreatment
[9] = Study I, after 2-3 weeks treatment
[10] = Study II, about 2 weeks treatment

Cc1nc2n(c(=O)c1CCN1CCC(c3noc4cc(F)ccc34)CC1)CCCC2 [Risperidone, risperidone]
concentration of arachidonic acid, AA (20:4n6) ([1]; Study I, plasma lipid classes, post-treatment vs pre-treatment): not significantly altered | CE concentration [1, 5]: trend toward an increase | DG concentration [1, 5]: trend toward an increase | FA (free fatty acid) class concentration [1, 5]: decrease | LY class concentration [1, 5]: increase | PC class concentration [1, 5]: increased | PE class concentration [1, 5]: increased | TG concentration [1, 5]: trend toward an increase | concentration of linoleic acid (18:2n6) and its immediate metabolic products 18:3n6 and 20:3n6 [1, 5]: increased | concentration of saturated fatty acids in PE, PC and LY [1, 5]: increased | concentration of total n6 and n3 fatty acids in PE, PC and LY [1, 5]: increased | n7 and n9 free fatty acids [1, 5]: decreases | DG concentration [1, 6]: significantly increased | PC18:3n6 concentration [1, 6]: increased | PC20:2n6 concentration [1, 6]: increased | PC20:3n6 concentration [1, 6]: increased | PC concentration [1, 6]: increased | PE concentration [1, 6]: increased | TG concentration [1, 6]: significantly increased | concentration of PC20:4n6 (arachidonic acid) [1, 6]: did not change | reduction in 18:0 in patients with schizophrenia ([1]; after treatment, FIG. 1): essentially reversed | triacylglycerol and phospholipid content of the plasma ([1]; following treatment): increased | fatty acid synthesis ([1]; inferred from 16:1n7, 18:1n7 and 18:1n9 concentrations): less evident | CE18:3n3 I/D [1, 7]: I | DG18:3n6 I/D [1, 7]: I | FA16:0 I/D [1, 7]: I | FA18:0 I/D [1, 7]: I | FA20:4n6 I/D [1, 7]: I | FA20:5n3 I/D [1, 7]: I | FA24:0 I/D [1, 7]: I | FA.SFA I/D [1, 7]: I | LY18:0 I/D [1, 7]: I | LY18:1n9 I/D [1, 7]: I | LY18:3n6 I/D [1, 7]: I | LY20:1n9 I/D [1, 7]: I | LY20:2n6 I/D [1, 7]: I | LY20:3n9 I/D [1, 7]: I | LY20:4n3 I/D [1, 7]: I | LY.n9 I/D [1, 7]: I | PC14:0 I/D [1, 7]: I | PC16:1n7 I/D [1, 7]: I | PC18:0 I/D [1, 7]: I | PC18:1n9 I/D [1, 7]: I | PC18:3n3 I/D [1, 7]: I | PC18:3n6 I/D [1, 7]: I | PC20:2n6 I/D [1, 7]: I | PC20:3n9 I/D [1, 7]: I | PC20:4n3 I/D [1, 7]: I | PC20:5n3 I/D [1, 7]: I | PC.n9 I/D [1, 7]: I | PE18:1n9 I/D [1, 7]: I | PE.n9 I/D [1, 7]: I | TG14:0 I/D [1, 7]: I | TG14:1n5 I/D [1, 7]: I | TG18:0 I/D [1, 7]: I | TG18:3n6 I/D [1, 7]: I | TG20:0 I/D [1, 7]: I | TG20:3n6 I/D [1, 7]: I | TG20:4n3 I/D [1, 7]: I | TG20:5n3 I/D [1, 7]: I | LYLC I/D [1, 8]: I | PCLC I/D [1, 8]: I | PELC I/D [1, 8]: I | levels of arachidonic and docosahexaenoic acids (20:4n6 and 22:6n3) ([1]; present studies, after treatment): remained essentially the same | CGI Affective, Post [2, 9]: 1.7 ± 0.3 | CGI Negative, Post [2, 9]: 2 ± 0.4 | CGI Positive, Post [2, 9]: 2.6 ± 0.2 | CGI Change, Post ([2]; Study I): 2.9 ± 0.3 | CGI Affective, Post [2, 10]: 1.2 ± 0.2 | CGI Negative, Post [2, 10]: 1.4 ± 0.2 | CGI Positive, Post [2, 10]: 3 ± 0.3 | CGI Change, Post ([2]; Study II): 3 ± 0.3 | apparent delta 5 desaturase activity ([3]; estimated from 20:4n6/20:3n6 in phosphatidylcholine, FIGS. 5A and 5B): decreased | alterations of fatty acid ratios in patients with schizophrenia ([3]; following treatment): essentially reversed toward normal ranges | effect on serum lipids ([4]; in vivo): discrepant data | weight gain, mean increases during the first year of therapy ([4]; prospective data): 4.4-5.1 lbs
